Measured values published in patent US20230210770A1, “TOPICAL OPHTHALMOLOGICAL COMPOSITIONS AND METHODS FOR TREATING ABNORMAL ANGIOGENESIS” (ADS THERAPEUTICS LLC, priority 2020, published 2023).
Converted amounts (≈) assume the structure as drawn.

Assays:
[1] = cited from earlier work
[2] = test system: rabbit glaucoma filtration surgery model; test: Rabbit glaucoma filtration surgery model; format: in vivo, New Zealand White rabbits; details: vs vehicle
[3] = Solubility of nintedanib in a representative water-based emulsion system; format: physicochemical; details: for solubility: water-based emulsion, aqueous with cosolvent or surfactant or cyclodextrin, Nintedanib solubility
[4] = Solubility of nintedanib in various solubilizers; format: physicochemical
Procedure: Tare 1.5 mL Eppendorf tube 2. […] Add solubilizer and record weight 4. Add water pH 5 (except F3 & F4) and record weight 5. Beadbeater mix for 120 seconds 6. Place on rotating mixer for overnight at ambient temperature 7. Filter through 0.2 μm SPIN-X centrifuge filter 8. Measure pH of filtrate 9. Assay filtrate using CBT-001 standard solution [table]

[5] = Solubility in water (reported); format: physicochemical
[6] = Regorafenib concentration and degradation in F6H8 suspension by HPLC; format: physicochemical
Procedure: The Suspension was homogenized by stirring at room temperature for 15 minutes. […] The observed fluctuation was most likely due to inhomogeneity of the sample after manual shaking of the suspension.
[…] were injected into an Agilent 1100 HPLC system (Agilent, Waldbronn, Germany), and samples were run on a heated (40° C.) Symmetry C18 column (150×4.6 mm-3.5 um particle size, Waters, Eschborn, Germany) applying a flow rate of 1 ml/min. The mobile phase consisted of a mixture of potassium phosphate buffer pH 2.4 (A) and acetonitrile/ethanol (6/4) (B). The following gradient was applied: minute 0: A, 60%/B, 40%: minute 12: A, 20%/B, 80%: minute 16: A, 20%/B, 80%: minute 16.5: A, 60%/B, 40%: minute 20: A, 60%/B, 40%.

[7] = water-based emulsion of castor oil, polysorbate 80 and polyoxyl-35 castor oil

In the case of `CNC(=O)c1ccccc1Sc1ccc2c(/C=C/c3ccccn3)n[nH]c2c1` [Axitinib, axitinib], the solubility in water ([1]; water at neutral pH) is listed as 0.2 mg/mL (≈ 0.517 mM).

For `COC(=O)c1ccc2c(c1)NC(=O)/C2=C(\Nc1ccc(N(C)C(=O)CN2CCN(C)CC2)cc1)c1ccccc1` [Nintedanib, nintedanib], the “reported solubility in water” value ([1]; water) is given as “less than 0.01 mg/mL”, the fibroblast density ([2]; group 3: 0.3% emulsion BID minus Day 7-Day 30, rabbit) is given as “trend of reduction not statistically significant” and the fibroblast density ([2]; group 4: 0.3% emulsion BID Day 1-Day 30, rabbit) is given as “significant reduction”. For the same compound, the “nintedanib dissolved by the emulsion system” value [3, 7] was 3 to 5 mg/mL, the “ophthalmic emulsion concentration of nintedanib” value [3, 7] was 0.3%-0.5 and the solubility ([3]; emulsion F70 lot 1: castor oil 1, polysorbate 80 1, polyoxyl-35 castor oil 2, water 95) was 5000 µg/mL (≈ 9.27 mM). It also gave a solubility ([3]; emulsion F70 lot 2: castor oil 1, polysorbate 80 1, polyoxyl-35 castor oil 2, water 95) of 3400 µg/mL (≈ 6.3 mM), a Nintedanib solubility ([4]; solubilizer BZA, filtrate pH 5.6) of 0.01 mg/g and a Nintedanib solubility ([4]; solubilizer BZK, filtrate pH 5.6) of 0.20 mg/g. The Nintedanib solubility ([4]; solubilizer Castor oil) was 0.37 mg/g, the Nintedanib solubility ([4]; solubilizer EtOH, filtrate pH 6.1) was 0.01 mg/g and the Nintedanib solubility ([4]; solubilizer Mineral oil) was 0.00 mg/g. It also gave a Nintedanib solubility ([4]; solubilizer PEG 400, filtrate pH 5.6) of 0.17 mg/g, a Nintedanib solubility ([4]; solubilizer PEG 8000, filtrate pH 6.0) of 0.01 mg/g and a Nintedanib solubility ([4]; solubilizer PG, filtrate pH 6.0) of 0.01 mg/g. It also gave a Nintedanib solubility ([4]; solubilizer PLXMR 188, filtrate pH 6.5) of 0.01 mg/g, a Nintedanib solubility ([4]; solubilizer PLXMR 407, filtrate pH 6.3) of 0.01 mg/g and a Nintedanib solubility ([4]; solubilizer polysorbate 20, filtrate pH 6.6) of 0.06 mg/g. For the same compound, the Nintedanib solubility ([4]; solubilizer polysorbate 80, filtrate pH 6.7) was 0.25 mg/g and the “reported solubility in water, as percent” value [5] was less than 0.001%.

For `CNC(=O)c1cc(Oc2ccc(NC(=O)Nc3ccc(Cl)c(C(F)(F)F)c3)c(F)c2)ccn1` [Regorafenib, regorafenib], the “degradation products in HPLC chromatograms” value ([6]; 400 mg micronized regorafenib monohydrate suspended in 20 ml F6H8) was “No unidentified degradation product was observed” and the “Measured regorafenib concentration, % of theoretical concentration” value ([6]; 400 mg micronized regorafenib monohydrate suspended in 20 ml F6H8, HPLC) was 95.4-99.1%.
